{
  "source": "patent US6605619B1",
  "about": "“Nitroxides as protectors against oxidatives stress” (The United States of America as represented by the …, priority 1992, dated 2003)",
  "key": {"[1]": {"test_system": "Chinese hamster V79 cells", "experiment": "Protection of cells exposed to HX/XO, clonogenic survival", "format": "cell-based", "conditions": "0.05 U/ml XO + 0.5 mM HX, 37° C.; 5 mM nitroxide; 100 U/ml catalase; SOD; 500 μM DF preincubated 2 h", "protocol": "Chinese hamster V79 cells were grown in F12 medium supplemented with 10% fetal calf serum, penicillin, and streptomycin. Survival was assessed in all studies by the clonogenic assay. The plating efficiency range between 80-90%. Stock cultures of exponentially growing cells were trypsinized, rinsed, and plated (5×10^5 cells/dish) into a number of 100 mm petri dishes and incubated 16 h at 37° C. prior to experimental protocols. Cells were exposed for 1 h at 37° C. to either 0.5 mM hypoxanthine (HX)+0.05 U/ml of xanthine oxidase (XO) for varying lengths of time, or to H2O2 at different concentrations. To assess possible modulation in cytotoxicity, catalase, 100 U/ml; SOD, 100 μg/ml; DF, 500 μM; and 5 mM of each of the nitroxides from Table 1 were added to parallel cultures. CHD was prepared in a stock solution in ethanol and diluted into medium such that the final concentration was 5 mM. […] TEMPOL is water soluble and was prepared directly in tissue culture medium. […] DF was added either 2 h prior to or during treatment while the other agents were present only during HX/XO or H2O2 treatment. Following treatment, cells were rinsed, trypsinized, counted, and plated for macroscopic colony formation. For each dose determination cells were plated in triplicate and the experiments were repeated a minimum of two times. Plates were incubated 7 days, after which colonies were fixed with methanol/acetic acid, stained with crystal violet, and counted. Colonies containing >50 cells were scored. Error bars represent S.D. of the mean and are shown when larger than the symbol."}, "[2]": {"experiment": "SOD-inhibitable ferricytochrome c reduction assay, rate constants of reaction with O2 (SOD-like activity)", "format": "biochemical", "conditions": "low ionic strength (10 mM HEPES), pH 7.0, 22° C.", "description": "As a further check, the reaction of representatives of both 5- and 6-membered cyclic nitroxides with O2 was studied. The SOD-inhibitable ferricytochrome c reduction assay (Fridovich, Handbook of Methods for Oxygen Radical Research, 213-215, 1985) was used to determine rate constants of reaction with O2. […] The reaction was started by adding 0.01 U/ml XO and the rate of ferricytochrome c reduction, in the absence (V) and in the presence (v) of various nitroxides, was spectrophotometrically followed at 550 nm. Both reference and sample cuvettes contained all the reagents, with the reference cuvette containing 100 units/ml SOD, thereby eliminating spurious reactions from interfering with the determination of rate constants. Data were analyzed by plotting V/v as a function of [nitroxide] and k1 was calculated, knowing kCytC+superoxide, according to:\n(V/v)−1=k1x[nitroxide]/kCytC+superoxidex[Cyt−c^III]."}},
  "note": "Marks after values point to notes of the source that are not given here.",
  "data": [
    {"smiles": "CC1(C)CN([O])C2(CCCCC2)O1", "note": "[CHD, 2-spirocyclohexane-5,5-dimethyl-3-oxazolidinoxyl]", "values": [
      {"measurement": "cell survival / protection from HX/XO", "setting": "[1]", "result": "fully protected"},
      {"measurement": "kR′RNO + O2", "setting": "[2]", "result": "3.5 × 10^3 M − 1^s − 1"}
    ]}
  ]
}
